Experiments:
eotaxin-3 release = experiment: Human whole blood eotaxin-3 assay (IL-4 stimulated); format: cell-based; conditions: human whole blood, IL-4 0.4 nM, 48 hours; geometric mean; given for compounds with >80% Emax; read-out: Eotaxin-3 EC50
In short: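 Human whole blood was preincubated with compound for 120 min at 37 °C, then stimulated with recombinant human IL-4 (E. coli) at 0.4 nM final for 48 h. Inhibition of eotaxin-3 release gave EC50 values.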

STAT6 = STAT6 (Homo sapiens (Human), UniProt P42226); experiment: STAT6 degrader assay (HiBiT, HeLa LgBiT clone 4.14); format: cell-based; conditions: HeLa LgBiT clone 4.14, 4-24 h; for DC50: geometric mean, given for compounds with >80% Emax, read-out: STAT6 degradation DC50
In short: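 DC50 (nM) comes from luminescence of non-degraded STAT6 read 0.5 h after Nano-GLO addition, following 4-24 h compound exposure at 37° C. Cells were HeLa clone 4.14 expressing LgBiT with a CRISPR HiBiT tag on endogenous STAT6; 50 μM terfenadine set full degradation.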

STAT6, sequence (P42226 whole entry): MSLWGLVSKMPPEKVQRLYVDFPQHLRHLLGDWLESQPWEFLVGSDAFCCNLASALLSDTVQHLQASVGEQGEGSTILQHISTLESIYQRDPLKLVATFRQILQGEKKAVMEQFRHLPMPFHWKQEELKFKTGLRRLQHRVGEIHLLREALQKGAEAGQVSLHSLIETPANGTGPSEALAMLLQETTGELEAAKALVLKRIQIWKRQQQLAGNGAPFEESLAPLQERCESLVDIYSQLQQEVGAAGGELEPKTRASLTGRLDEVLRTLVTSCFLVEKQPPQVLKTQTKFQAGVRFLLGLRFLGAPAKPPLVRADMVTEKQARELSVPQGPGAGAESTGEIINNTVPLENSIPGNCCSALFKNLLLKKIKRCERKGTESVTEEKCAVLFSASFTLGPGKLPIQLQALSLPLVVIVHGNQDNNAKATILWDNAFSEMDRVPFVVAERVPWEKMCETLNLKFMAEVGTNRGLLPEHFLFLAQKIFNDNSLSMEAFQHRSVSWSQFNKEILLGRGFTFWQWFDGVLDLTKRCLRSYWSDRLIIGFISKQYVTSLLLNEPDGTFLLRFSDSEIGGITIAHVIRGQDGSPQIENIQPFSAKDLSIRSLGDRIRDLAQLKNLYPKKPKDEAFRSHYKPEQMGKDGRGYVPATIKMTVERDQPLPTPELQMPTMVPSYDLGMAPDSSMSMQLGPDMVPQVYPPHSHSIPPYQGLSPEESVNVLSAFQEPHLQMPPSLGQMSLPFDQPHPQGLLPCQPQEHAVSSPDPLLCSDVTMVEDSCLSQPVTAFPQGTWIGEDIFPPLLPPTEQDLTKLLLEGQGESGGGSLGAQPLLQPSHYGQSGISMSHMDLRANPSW

Row | EC50 (eotaxin-3 release) | DC50 (STAT6) | Emax (STAT6; read-out: STAT6 degradation Emax (%)) | SMILES
1 | 2.3 nM | 0.4 nM | – | C[C@@H](c1cc2c(-c3ccc(N)nc3)ccnc2n1C)N1CCC(c2ccc(C(=O)N3CCC(CN4[C@@H](C)CN(Cc5ccc6c(c5)n(C)c(=O)n6C5CCC(=O)NC5=O)C[C@@H]4C)CC3)cc2)CC1 (stereo partly drawn) [Example 3e29, 3-(5-(((3S,5S)-4-((1-(4-(1-((S)-1-(4-(6-aminopyridin-3-yl)-1-methyl-1H-pyrrolo [2,3-b]pyridin-2-yl)ethyl)piperidin-4-yl)benzoyl)piperidin-4-yl)methyl)-3,5-dimethylpiperazin-1l-yl)methyl)-3-methyl-2-oxo-2,3-dihydro-1H-benzo[d]imidazol-1-yl)piperidine-2,6-dione]
2 | 36.9 nM | 7.2 nM | – | C[C@@H](c1cc2c(-c3ccc(N)nc3)ccnc2n1C)N1CCC(c2ccc(C(=O)N3CCC(CN4CCN(Cc5cc6c(cc5Cl)n(C5CCC(=O)NC5=O)c(=O)n6C)CC4)CC3)cc2)CC1 (stereo partly drawn) [Example 3e30, 3-(5-((4-((1-(4-(1-((S)-1-(4-(6-aminopyridin-3-yl)-1-methyl-1H-pyrrolo[2,3-b]pyridin-2-yl)ethyl)piperidin-4-yl)benzoyl)piperidin-4-yl)methyl)piperazin-1-yl)methyl)-6-chloro-3-methyl-2-oxo-2,3-dihydro-1H-benzo[d]imidazol-1-yl)piperidine-2,6-dione]
3 | 9.3 nM | 2 nM | – | C[C@@H](c1cc2c(-c3ccc(N)nc3)ccnc2n1C)N1CCC(c2ccc(C(=O)N3CCC(CN4CCN(Cc5ccc6c(c5)n(C)c(=O)n6C5CCC(=O)NC5=O)CC4C(F)(F)F)CC3)cc2)CC1 (stereo partly drawn) [Example 3e31, 3-(5-((4-((1-(4-(1-((S)-1-(4-(6-aminopyridin-3-yl)-1-methyl-1H-pyrrolo[2,3-b]pyridin-2-yl)ethyl)piperidin-4-yl)benzoyl)piperidin-4-yl)methyl)-3-(trifluoromethyl)piperazin-1-yl)methyl)-3-methyl-2-oxo-2,3-dihydro-1H-benzo[d]imidazol-1-yl)piperidine-2,6-dione]
4 | 7.8 nM | 1.6 nM | – | C[C@@H](c1cc2c(-c3ccc(N)nc3)ccnc2n1C)N1CCC(c2ccc(C(=O)N3CCC(F)(CN4CCN(Cc5ccc6c(c5)n(C)c(=O)n6C5CCC(=O)NC5=O)CC4)CC3)cc2)CC1 (stereo partly drawn) [Example 3e32, 3-(5-((4-((1-(4-(1-((S)-1-(4-(6-aminopyridin-3-yl)-1-methyl-1H-pyrrolo[2,3-b]pyridin-2-yl)ethyl)piperidin-4-yl)benzoyl)-4-fluoropiperidin-4-yl)methyl)piperazin-1-yl)methyl)-3-methyl-2-oxo-2,3-dihydro-1H-benzo[d]imidazol-1-yl)piperidine-2,6-dione]
5 | 4.9 nM | 1.8 nM | – | C[C@@H](c1cc2c(-c3ccc(N)nc3)ccnc2n1C)N1CCC(c2ccc(C(=O)N3CCC(CN4CCN(Cc5cc6c(cc5F)n(C5CCC(=O)NC5=O)c(=O)n6C)CC4)CC3)cc2)CC1 (stereo partly drawn) [Example 3e33, 3-(5-((4-((1-(4-(1-((S)-1-(4-(6-aminopyridin-3-yl)-1-methyl-1H-pyrrolo[2,3-b]pyridin-2-yl)ethyl)piperidin-4-yl)benzoyl)piperidin-4-yl)methyl)piperazin-1-yl)methyl)-6-fluoro-3-methyl-2-oxo-2,3-dihydro-1H-benzo[d]imidazol-1-yl)piperidine-2,6-dione]
6 | 7.9 nM | 3.2 nM | – | C[C@@H](c1cc2c(-c3ccc(N)nc3)ccnc2n1C)N1CCC(c2ccc(C(=O)N3CCC(CN4CCN(Cc5cc6c(cc5F)n(C5CCC(=O)NC5=O)c(=O)n6C5CC5)CC4)CC3)cc2)CC1 (stereo partly drawn) [Example 3e35, 3-(5-((4-((1-(4-(1-((S)-1-(4-(6-aminopyridin-3-yl)-1-methyl-1H-pyrrolo[2,3-b]pyridin-2-yl)ethyl)piperidin-4-yl)benzoyl)piperidin-4-yl)methyl)piperazin-1-yl)methyl)-3-cyclopropyl-6-fluoro-2-oxo-2,3-dihydro-1H-benzo[d]imidazol-1-yl)piperidine-2,6-dione]
7 | 23.7 nM | – | 70 to 80% | C[C@@H](c1cc2c(-c3ccc(N)nc3)ccnc2n1C)N1CCC(c2ccc(C(=O)N3CCC(CN4CCN(Cc5ccc6c(c5)n(CCO)c(=O)n6C5CCC(=O)NC5=O)CC4)CC3)cc2)CC1 (stereo partly drawn) [Example 3e36, 3-(5-((4-((1-(4-(1-((S)-1-(4-(6-aminopyridin-3-yl)-1-methyl-1H-pyrrolo[2,3-b]pyridin-2-yl)ethyl)piperidin-4-yl)benzoyl)piperidin-4-yl)methyl)piperazin-1-yl)methyl)-3-(2-hydroxyethyl)-2-oxo-2,3-dihydro-1H-benzo[d]imidazol-1-yl)piperidine-2,6-dione]
8 | 1.4 nM | 0.2 nM | – | C[C@H]1CN(Cc2ccc3c(c2)n(C)c(=O)n3C2CCC(=O)NC2=O)CCN1CC1CCN(C(=O)c2ccc(C3CCN([C@@H](C)c4cc5c(-c6ccc7[nH]c(=O)n(C)c7c6)ccnc5n4C)CC3)cc2)CC1 (stereo partly drawn) [Example 3e37, 3-(3-methyl-5-(((S)-3-methyl-4-((1-(4-(1-((S)-1-(1-methyl-4-(3-methyl-2-oxo-2,3-dihydro-1H-benzo[d]imidazol-5-yl)-1H-pyrrolo[2,3-b]pyridin-2-yl)ethyl)piperidin-4-yl)benzoyl)piperidin-4-yl)methyl)piperazin-1-yl)methyl)-2-oxo-2,3-dihydro-1H-benzo[d]imidazol-1-yl)piperidine-2,6-dione]
9 | 7.8 nM | 1 nM | – | C[C@H]1CN(Cc2ccc3c(c2)n(C)c(=O)n3C2CCC(=O)NC2=O)CCN1CC1CCN(C(=O)c2ccc(C3CCN([C@@H](C)c4cc5c(-c6ncc(N)cc6F)ccnc5n4C)CC3)cc2)CC1 (stereo partly drawn) [Example 3e38, 3-(5-(((S)-4-((1-(4-(1-((S)-1-(4-(5-amino-3-fluoropyridin-2-yl)-1-methyl-1H-pyrrolo[2,3-b]pyridin-2-yl)ethyl)piperidin-4-yl)benzoyl)piperidin-4-yl)methyl)-3-methylpiperazin-1-yl)methyl)-3-methyl-2-oxo-2,3-dihydro-1H-benzo[d]imidazol-1-yl)piperidine-2,6-dione]
10 | 3.8 nM | 0.5 nM | – | C[C@H]1CN(Cc2ccc3c(c2)n(C)c(=O)n3C2CCC(=O)NC2=O)CCN1CC1CCN(C(=O)c2ccc(C3CCN([C@@H](C)c4cc5c(-c6ccc(NCCO)nc6)ccnc5n4C)CC3)cc2)CC1 (stereo partly drawn) [Example 3e40, 3-(5-(((S)-4-((1-(4-(1-((S)-1-(4-(6-((2-hydroxyethyl)amino)pyridin-3-yl)-1-methyl-1H-pyrrolo[2,3-b]pyridin-2-yl)ethyl)piperidin-4-yl)benzoyl)piperidin-4-yl)methyl)-3-methylpiperazin-1-yl)methyl)-3-methyl-2-oxo-2,3-dihydro-1H-benzo[d]imidazol-1-yl)piperidine-2,6-dione]
11 | 0.8 nM | 0.2 nM | – | COc1nc(N)ccc1-c1ccnc2c1cc([C@H](C)N1CCC(c3ccc(C(=O)N4CCC(CN5CCN(Cc6ccc7c(c6)n(C)c(=O)n7C6CCC(=O)NC6=O)C[C@@H]5C)CC4)cc3)CC1)n2C (stereo partly drawn) [Example 3e41, 3-(5-(((S)-4-((1-(4-(1-((S)-1-(4-(6-amino-2-methoxypyridin-3-yl)-1-methyl-1H-pyrrolo[2,3-b]pyridin-2-yl)ethyl)piperidin-4-yl)benzoyl)piperidin-4-yl)methyl)-3-methylpiperazin-1-yl)methyl)-3-methyl-2-oxo-2,3-dihydro-1H-benzo[d]imidazol-1-yl)piperidine-2,6-dione]
12 | 3.4 nM | 1.8 nM | – | C[C@@H](c1cc2c(-c3ccc(N)nc3)ccnc2n1C)N1CCC(c2ccc(C(=O)N3CCC(CN4CCN(Cc5ccc6c(c5)n(C)c(=O)n6C5CCC(=O)NC5=O)C[C@@H]4C(F)(F)F)CC3)cc2)CC1 (stereo partly drawn) [Example 3e42, 3-(5-(((R)-4-((1-(4-(1-((S)-1-(4-(6-aminopyridin-3-yl)-1-methyl-1H-pyrrolo[2,3-b]pyridin-2-yl)-ethyl)piperidin-4-yl)benzoyl)piperidin-4-yl)methyl)-3-(trifluoromethyl)piperazin-1-yl)methyl)-3-methyl-2-oxo-2,3-dihydro-1H-benzo[d]imidazol-1-yl)piperidine-2,6-dione]
13 | 4.6 nM | 2.8 nM | – | C[C@@H](c1cc2c(-c3ccc(N)nc3)ccnc2n1C)N1CCC(c2ccc(C(=O)N3CCC(CN4CCN(Cc5ccc6c(c5)n(C)c(=O)n6C5CCC(=O)NC5=O)C[C@H]4C(F)(F)F)CC3)cc2)CC1 (stereo partly drawn) [Example 3e43, 3-(5-(((S)-4-((1-(4-(1-((S)-1-(4-(6-aminopyridin-3-yl)-1-methyl-1H-pyrrolo[2,3-b]pyridin-2-yl)ethyl)piperidin-4-yl)benzoyl)piperidin-4-yl)methyl)-3-(trifluoro-methyl)piperazin-1-yl)methyl)-3-methyl-2-oxo-2,3-dihydro-1H-benzo[d]imidazol-1-yl)piperidine-2,6-dione]
14 | 2.1 nM | 0.8 nM | – | C[C@H]1CN(Cc2ccc3c(c2)n(C)c(=O)n3C2CCC(=O)NC2=O)CCN1CC1(F)CCN(C(=O)c2ccc(C3CCN([C@@H](C)c4cc5c(-c6ccc(N)nc6)ccnc5n4C)CC3)cc2)CC1 (stereo partly drawn) [Example 3e45, 3-(5-(((S)-4-((1-(4-(1-((S)-1-(4-(6-aminopyridin-3-yl)-1-methyl-1H-pyrrolo[2,3-b]pyridin-2-yl)ethyl)piperidin-4-yl)benzoyl)-4-fluoropiperidin-4-yl)methyl)-3-methylpiperazin-1-yl)methyl)-3-methyl-2-oxo-2,3-dihydro-1H-benzo[d]imidazol-1-yl)piperidine-2,6-dione]

— US20250325677A1, “STAT6 DEGRADERS” (Gilead Sciences, Inc., priority 2024, published 2025)
